From US20240173403A1, “Combination of AXL Antibodies and ACE Inhibitors in the Treatment of Fibrosis” (BERGENBIO ASA, priority 2021, published 2024)
“Also recorded” adds a separate entry of the source. Like-named read-outs stand apart in the source and are kept apart here.

Experiments:
[1] = system: lung fibrosis; conditions: two mouse lung fibrosis models; Espindola et al. 2018; cited from earlier work
[2] = system: kidney fibrosis; conditions: UUO mice, bemcentinib monotherapy, Landolt et al. 2019, cited from earlier work
[3] = system: αSMA (activated myofibroblasts); assay: α-SMA staining of PCKS sections, % area positive; type: cell-based, human; conditions: 96 hrs harvest
Description: (§1) PCKS were prepared from explanted kidney tissue and rested for 24 hours to allow the post-slicing stress period to elapse before experiments began. All PCKS were harvested at 96 hrs.
(§2) Tissue culture supernatant (n=3 paired wells) were collected every 24 hrs and snap frozen for quantification of soluble outputs. At 96 hrs n=4 PCKS were snap frozen for RNA extraction and n=2 PCKS were formalin fixed paraffin embedded (FFPE) for IHC.
FFPE tissue was cut into 5 μm sections and stained for Picrosirius Red and α-Smooth Muscle Actin (αSMA) (n=19 samples per donor). Analysis was performed by a pathology trained technical staff member without knowledge of the sample ID. High magnification images were taken of each slide and analysed for the surface area covered by the stain (e.g. percentage area positive for Oil Red O, Picrosirius or αSMA).
α-SMA stained PCKS sections were prepared. Up to 25 high magnification images (×20) from each PCKS were quantified for the percentage area of tissue positive for stain and averaged to give a mean tissue area positive for α-SMA.
Histological effects of treatments were assessed on the basis of changes in percentage positive area stained for αSMA (activated myofibroblasts) and Picrosirius Red (collagen deposition).

[4] = system: TIMP-1; assay: TIMP-1 levels in human PCKS culture supernatants (ELISA); type: cell-based
Description: as §1
(§3) PCKS were incubated for a 24 hr rest period. Post-rest, PCKS were incubated for a further 72 hrs in the presence or absence of inhibitors. PCKS culture media, including all compounds, was refreshed and harvested at 24 hrs intervals. All PCKS were harvested at 96 hrs.
as §2
(§4) Levels of collagen 1a1, IL-6, Hyaluronic Acid and TIMP-1 in the tissue culture supernatants (n=165 samples per donor) were quantified using R&D Duoset ELISA kits.

[5] = system: IL-6; assay: IL-6 levels in human PCKS culture supernatants (ELISA); type: cell-based; conditions: two of the high doses of Bemcentinib; early time point (48 hrs)
Description: as §1, §3, §2, §4

[6] = system: liver fibrosis; conditions: mice; Barcena et al. 2015; cited from earlier work
[7] = system: Collagen 1a1; assay: Collagen 1a1 levels in human PCKS culture supernatants (ELISA); type: cell-based
Description: as §1, §3, §2, §4
Levels of collagen 1a1 in the tissue culture supernatants were quantified using R&D Duoset ELISA kits.

[8] = system: Hyaluronic Acid; assay: Hyaluronic Acid levels in human PCKS culture supernatants (ELISA); type: cell-based; conditions: Nintedanib 4 μM
Description: as §1, §3, §2, §4

[9] = Enalapril alone (0.75, 0.15 μM)
[10] = 4 μM, 72 hrs and 96 hrs of treatment, positive control
[11] = Tilvestamab monotherapy (1 to 125 μg/mL)

Nc1nc(Nc2ccc3c(c2)CC[C@@H](N2CCCC2)CC3)nn1-c1cc2c(nn1)-c1ccccc1CCC2 [Bemcentinib, 1-(6,7-dihydro-5H-benzo[6,7]cyclohepta[1,2-c]pyridazin-3-yl)-N^3-((7-(S)-pyrrolidin-1-yl)-6,7,8,9-tetrahydro-5H-benzo[7]annulene-2-yl)-1H-1,2,4-triazole-3,5-diamine]
fibrosis development in lung [1]: reduction in fibrosis development | fibrosis development in kidney [2]: attenuate fibrosis and reduce inflammation | fibrosis development in kidney ([2]; listed as bemcentinib): less fibrosis development | αSMA, percentage positive area ([3]; Bemcentinib singly, 3 μM): reduce expression of the fibrotic marker αSMA; also recorded: reduced | TIMP-1 production ([4]; Bemcentinib monotherapy, all doses (0.11, 0.33, 1, 3 μM)): able to reduce production of the fibrotic markers Collagen 1a1 and TIMP-1 at all doses | IL-6 secretion [5]: spike in IL-6 secretion | liver fibrosis [6]: reduced liver fibrosis | Collagen 1a1 production ([7]; Bemcentinib monotherapy, all doses (0.11, 0.33, 1, 3 μM), not dose dependent): able to reduce production of the fibrotic markers Collagen 1a1 and TIMP-1 at all doses

CCOC(=O)[C@H](CCc1ccccc1)N[C@@H](C)C(=O)N1CCC[C@H]1C(=O)O [Enalapril]
αSMA, percentage positive area ([3]; Enalapril singly, 0.15 μM): reduced | αSMA, percentage positive area ([3]; Enalapril singly, 0.15 μM, listed as Enalaril): reduce expression of the fibrotic marker αSMA | TIMP-1 secretion [4, 9]: did not show any efficacy towards reducing TIMP-1 secretion | Collagen 1a1 secretion [7, 9]: did not show any efficacy towards reducing Collagen 1a1 secretion

COC(=O)c1ccc2c(c1)NC(=O)/C2=C(\Nc1ccc(N(C)C(=O)CN2CCN(C)CC2)cc1)c1ccccc1 [Nintedanib]
Hyaluronic acid [8]: readily reduced | TIMP-1 production [4, 10]: significantly inhibit TIMP-1 production | Collagen 1a1 production [7, 10]: inhibited Collagen 1a1 production

B1: Tilvestamab: novel humanized anti-AXL antibody that blocks GAS6-mediated AXL receptor activation; VH SEQ ID No.1, VL SEQ ID No.2 (antibody, V domains shown)
VH: EVQLVESGGGLVQPGGSLRLSCAASGYSFTDFYINWVRQAPGKGLEWVARIFPGGDNTYYNEKFKGRFTLSADTSKSTAYLQMNSLRAEDTAVYYCARRGLYYAMDYWGQGTLVTVSS
VL: DIQMTQSPSSLSASVGDRVTITCRSSQSLVHSNGIPYLHWYQQKPGKAPKLLIYRVSNRFSGVPSRFSGSGSGTDFTLTISSLQPEDFATYYCSQGTHVPPTFGQGTKVEIK
modifications: BGB149 VH; BGB149 VL
αSMA, percentage positive area ([3]; Tilvestamab singly, three of the highest doses): did reduce αSMA; also recorded: reduced | TIMP-1 secretion [4, 11]: no effect on reducing Collagen 1a1 or TIMP-1 secretion; also recorded: no effect on reducing TIMP-1 secretion | Collagen 1a1 secretion [7, 11]: no effect on reducing Collagen 1a1 or TIMP-1 secretion; also recorded: no effect on reducing Collagen 1a1 secretion
